The record followed here is article PMC12305494, “Discovery of PXR Antagonist MI891 and PXR Degrader MI1013 and Their Roles in Hepatic Gene Regulation” (Journal of Medicinal Chemistry, 2025).

Data set [1] addresses T1, human CAR LBD (Homo sapiens, UniProt Q14994).
T1 sequence (Q14994 103-352): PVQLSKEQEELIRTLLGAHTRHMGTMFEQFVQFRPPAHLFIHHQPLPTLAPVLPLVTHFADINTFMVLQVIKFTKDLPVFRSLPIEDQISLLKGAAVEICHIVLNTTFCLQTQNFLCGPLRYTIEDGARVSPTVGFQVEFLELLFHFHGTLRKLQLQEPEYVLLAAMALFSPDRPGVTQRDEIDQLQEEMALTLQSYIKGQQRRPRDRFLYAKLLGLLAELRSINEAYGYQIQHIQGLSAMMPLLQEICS
Nature of the data set: LanthaScreen TR-FRET CAR Coactivator assay. Format: biochemical. The following applies: nb = no binding. As for the experimental part: We utilized the LanthaScreen TR-FRET CAR Coactivator Binding Assay Kit, goat (Thermo Fisher Scientific, Cat. No. PV4836), which includes GST-tagged human CAR LBD and a fluorescein-labeled PGC1α coactivator peptide. The assay was performed with slight modifications to the manufacturer’s protocol, as previously reported. […] The interaction with the PXR ligand-binding domain (LBD) was assessed using the LanthaScreen TR-FRET PXR Competitive Binding Assay (Thermo Fisher Scientific, PV4839), as previously described. This assay quantifies the ability of test compounds to displace a fluorescent PXR ligand from the receptor. Fluorescence readings were taken on a Synergy 2 Multi-Mode Microplate Reader (BioTek, Winooski, VT). The half-maximal inhibitory concentration (IC50) for PXR LBD was calculated from at least eight data points using GraphPad Prism software.
(In general: TR-FRET usually uses a lanthanide donor and a delayed reading to cut background.)

Data set [2] deals with T2, PXR (Homo sapiens, UniProt O75469).
T2 sequence (O75469 1-434): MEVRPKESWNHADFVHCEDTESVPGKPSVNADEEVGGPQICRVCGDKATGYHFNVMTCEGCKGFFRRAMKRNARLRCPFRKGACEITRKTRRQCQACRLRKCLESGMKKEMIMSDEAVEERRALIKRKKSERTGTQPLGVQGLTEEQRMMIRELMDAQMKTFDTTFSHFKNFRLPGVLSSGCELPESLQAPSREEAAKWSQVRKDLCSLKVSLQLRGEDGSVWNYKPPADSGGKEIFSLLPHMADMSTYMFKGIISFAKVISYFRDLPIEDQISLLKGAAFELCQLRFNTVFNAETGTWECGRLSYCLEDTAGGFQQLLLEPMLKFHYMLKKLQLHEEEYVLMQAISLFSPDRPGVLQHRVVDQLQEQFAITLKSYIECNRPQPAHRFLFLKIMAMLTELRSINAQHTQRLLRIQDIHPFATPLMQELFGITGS
Description: cell-based. The following applies: PXR antagonism: PXR inhibition (IC50, μM), antagonist mode with 10 μM rifampicin; mean ± SD, n = 3.
Description: The PXR activity was assessed as the PXR-dependent transcriptional activation using the construct. […] The control vector pRL-TK (Promega) constitutively expresses Renilla luciferase. […] Transient transfection experiments followed published protocols used in our laboratory and described before. , Luciferase reporter assays were conducted to evaluate interactions with PXR or CAR and their variants in HepG2, or COS-1. Cells were seeded at a density of 40,000 cells/cm^2 in 48-well plates (ThermoFisher Scientific) and maintained at 37 °C in a humidified atmosphere with 5% CO2. […] Following seeding, HepG2 cells were transfected with 150 ng/well of a luciferase reporter construct and 100 ng/well of a nuclear receptor expression vector using Lipofectamine 3000 (ThermoFisher Scientific) and with pRL-TK (30 ng/well) serving as the normalization control. After 24 h, cells were treated with test compounds for 24 h before cell lysis and subsequent firefly and Renilla luciferase activity analysis using the Dual-Glo Luciferase Assay System (Promega). […] The activities of test compounds were normalized to the respective controls to determine % activation or inhibition.

In data set [3] the target is T3, human CAR LBD (Homo sapiens, UniProt Q14994).
T3 construct: constructs encoding helices 3–12 and helix 1 of human CAR LBD; expressed in transfected cells; host or cells: HepG2
T3 sequence (Q14994 103-150 isoform Q14994-2 limits assumed): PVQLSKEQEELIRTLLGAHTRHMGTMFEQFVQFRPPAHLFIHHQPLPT
T3 sequence (Q14994 151-348 isoform Q14994-2 limits assumed): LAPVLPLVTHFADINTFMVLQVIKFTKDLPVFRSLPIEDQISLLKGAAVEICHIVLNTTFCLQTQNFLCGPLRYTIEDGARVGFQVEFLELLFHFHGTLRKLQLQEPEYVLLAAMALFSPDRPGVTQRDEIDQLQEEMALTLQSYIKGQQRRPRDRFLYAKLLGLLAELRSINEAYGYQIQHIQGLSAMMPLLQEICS
Nature of the data set: CAR LBD assembly assay (CAR AA). It is filed as cell-based. The following applies: na = no activity; tox = cytotoxicity in HepG2 cells. From the text: The CAR LBD assembly assay used constructs encoding helices 3–12 and helix 1 of human CAR LBD as described before. GL4.31[luc2P/GAL4UAS/Hygro] (pGAL4 UAS-luc) luciferase reporter vector and pRL-TK Renilla expression vector (Promega) were used in the assay in HepG2 cells transfected using Lipofectamine 3000.

Data set [4] addresses T2, PXR. Nature of the data set: PXR-responsive CYP3A4 promoter luciferase reporter assay in HepG2, inverse agonist mode (basal activity). It is filed as cell-based. Details: expressed in transfected cells; host or cells: HepG2. The conditions noted are these: tested at 10 μM, DMSO (0.1%) = 100% basal activity. As for the experimental part:
Rhesus monkey, mouse, and rat PXR expression vectors (100 ng/well each) were also obtained from GenScript. […] Carlberg (University of Kuopio, Kuopio, Finland).
The cells were cultured in DMEM medium (Merck) supplemented with 10% fetal bovine serum.
On the technique in general: Reporter assays use an easily measured gene product as a stand-in for the process of interest.

Data set [5] addresses T4, PXR (Homo sapiens, UniProt O75469+Q96SW2).
T4 construct: differentiated hepatic HepaRG cells, which naturally express high PXR activity and expression; endogenous in cells; host or cells: differentiated HepaRG
Nature of the data set: Western blot of PXR in differentiated HepaRG cells. It is filed as cell-based. The conditions noted are these: 24 h. As for the experimental part: The harvested HepaRG cells were lysed in RIPA lysis buffer (Cat. no 89900, Thermo Scientific) containing Halt protease inhibitor cocktail inhibitors (Thermo Scientific). Protein concentration was measured using the Pierce BCA Protein Assay Kit (Cat. no. 23225, Thermo Scientific), samples were diluted in 4 × Laemmli sample buffer (Cat. no. 1610747, BioRad) supplemented with mercaptoethanol and heated at 95 °C for 5 min. Equal amounts of protein were loaded in 4–20% Mini-PROTEAN TGX Stain-Free Protein Gels (12 well. cat. no. 4561095 or 15 well, cat. no. 4568096, Bio-Rad), electrophorised, and transferred onto Trans-Blot Turbo Midi-size PVDF Membrane (cat. no. 1704273, Bio-Rad), and blocked with EveryBlot Blocking buffer for 10 min (cat. no. 12010020, Bio-Rad). The membranes were incubated overnight at 4 °C with the following antibodies: PXR polyclonal antibody (1:500, PA5–41170, Invitrogen), RXRA polyclonal antibody (1:1000, 21218–1-AP, Proteintech), and GSPT1 polyclonal antibody (1:1000, 10763-a-AP, Proteintech), washed with TBS-T for 3 times, and followed by incubation with goat antirabbit IgG (H + L) Secondary antibody, HRP (1:200, 000, 1 h, cat. no. 31460, Invitrogen). Chemiluminescence signals were detected using SuperSignal West Femto Maximum Sensitivity Substrate (cat. no. 34096, Thermo Scientific) and visualized by the ChemiDoc MP Imaging system (Universal Hood III, #731BR02821, Bio-Rad), and the bands were quantified using β-actin (1:2000, recombinant rabbit conjugated monoclonal antibody (JF53-10), cat. no. MA5-32540, Invitrogen) as loading control with ImageJ (version 1.54g) software.
Background: Immunoblotting shows a protein as a band on a membrane.

Data set [6] in a line: Plasma stability, mouse plasma. It is filed as in vitro ADME. The conditions noted are these: up to 120 min, read-out: Plasma stability, t1/2 (min), mouse. On the procedure:
The protocols and reagents for the plasma protein binding assay and metabolic stability testing in human and mouse liver microsomes are detailed in our previous report. Briefly, metabolic stability of compounds was assessed at a single concentration (5 μM) at t = 0, 10, 30, and at t = 45 min. The stability of compounds was tested in human and mouse microsomes (ThermoFisher Scientific). Compounds were tested in triplicate with or without NADPH wells as a negative control for cytochrome P450 metabolism. In addition to hepatic metabolism, compounds were also subjected to degradation/modification by enzymes in human (VWR International) and mouse (Biomedica, CZ) plasma for t = 0, 30, 60, and at t = 120 min. Each assay included a substrate with known activity as a positive control. Time points were analyzed by LC/MS/MS. The peak area for the parent compound is compared to the time zero sample in order to assess the amount of remaining compound.

T4 sequence (Q96SW2 whole entry, one chain of several): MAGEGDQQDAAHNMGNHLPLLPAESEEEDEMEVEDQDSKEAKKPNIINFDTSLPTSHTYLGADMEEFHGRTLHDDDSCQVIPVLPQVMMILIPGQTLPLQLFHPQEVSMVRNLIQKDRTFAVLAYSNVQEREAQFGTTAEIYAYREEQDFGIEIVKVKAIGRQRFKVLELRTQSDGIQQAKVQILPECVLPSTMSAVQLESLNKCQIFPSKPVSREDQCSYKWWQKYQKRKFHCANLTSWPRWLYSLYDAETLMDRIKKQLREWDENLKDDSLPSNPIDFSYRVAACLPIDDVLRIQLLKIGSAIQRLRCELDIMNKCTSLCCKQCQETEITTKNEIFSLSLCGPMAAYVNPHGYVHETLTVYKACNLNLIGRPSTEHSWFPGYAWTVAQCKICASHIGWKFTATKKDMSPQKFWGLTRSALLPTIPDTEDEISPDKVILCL

Take `CC(c1ccc(Cl)c(C(N)=O)c1)n1cc(-c2c(-c3ccc(Cl)cc3)nc3ccccn23)nn1` (centres unmarked) [Compound 2, 2-Chloro-5-(1-(4-(2-(4-chlorophenyl)imidazo[1,2-a]pyridin-3-yl)-1H-1,2,3-triazol-1-yl)ethyl)benzamide]: the concentration for a half-maximal effect (EC50) (in general, the concentration giving half of the maximal effect) was more than 5 µM on human CAR LBD [1] and 5.3 ± 0.3 µM at human CAR LBD [3]. Inhibition at PXR [2] was half-maximal at 25.4 ± 3.5 µM (IC50).
Take `NC(=O)c1cc(Cn2cc(-c3c(-c4ccncc4)nc4ccccn34)nn2)ccc1Cl` [Compound 3, 2-Chloro-5-((4-(2-(pyridine-4-yl)imidazo[1,2-a]pyridine-3-yl)-1H-1,2,3-triazol-1-yl)methyl)benzamide]: the “CAR TR-FRET (EC50, μM)” value on human CAR LBD [1] was “nb”. Also, at PXR [2], the concentration for half-maximal inhibition (IC50) (usually the concentration that inhibits the measured activity by half) was more than 100 µM.
Take `NC(=O)c1cc(Cn2cc(-c3c(-c4ccc(C5CC5)cc4)nc4ccccn34)nn2)ccc1Cl` [Compound 4, 2-Chloro-5-((4-(2-(4-cyclopropylphenyl)imidazo[1,2-a]pyridin-3-yl)-1H-1,2,3-triazol-1-yl)methyl)benzamide]: on human CAR LBD [1], the “CAR TR-FRET (EC50, μM)” value is on record as “nb”. The same molecule came in with an IC50 against PXR [2] of 5.76 ± 2.6 µM. On human CAR LBD [3], this molecule showed an EC50 of more than 20 µM.
For `CNC(=O)c1cc(Cc2nnc(-c3c(-c4ccc(Cl)cc4)nc4ccccn34)o2)ccc1Cl` [Compound 5, 2-Chloro-5-((5-(2-(4-chlorophenyl)imidazo[1,2-a]pyridin-3-yl)-1,3,4-oxadiazol-2-yl)methyl)-N-methylbenzamide], the EC50 at human CAR LBD [1] is 0.401 µM; on human CAR LBD [3], 1.02 ± 0.2 µM. Further, the concentration for half-maximal inhibition (IC50) on PXR [2] was more than 100 µM.
In the same order, the values of `CNC(=S)c1cc(Cc2nnc(-c3c(-c4ccc(Cl)cc4)nc4ccccn34)o2)ccc1Cl` [Compound 6, 2-Chloro-5-((5-(2-(4-chlorophenyl)imidazo[1,2-a]pyridin-3-yl)-1,3,4-oxadiazol-2-yl)methyl)-N-methylbenzothioamide] are 0.162 µM, 0.99 ± 0.15 µM and more than 100 µM.
Molecule `CN(C)C(=O)c1cc(Cc2nnc(-c3c(-c4ccc(Cl)cc4)nc4ccccn34)s2)ccc1Cl` [Compound 7, 2-Chloro-5-((5-(2-(4-chlorophenyl)imidazo[1,2-a]pyridin-3-yl)-1,3,4-thiadiazol-2-yl)methyl)-N,N-dimethylbenzamide] gave a half-maximal inhibitory concentration (IC50) against PXR [2] of 4.94 ± 0.9 µM. The molecule further gave a 50% effective concentration (EC50) on human CAR LBD [3] of 0.5 ± 0.01 µM.
On to `NC(=O)c1cc(Cn2cc(-c3c(-c4ccc(Cl)cc4)nc4cc(F)ccn34)nn2)ccc1Cl` [Compound 9, 2-Chloro-5-((4-(2-(4-chlorophenyl)-7-fluoroimidazo[1,2-a]pyridin-3-yl)-1H-1,2,3-triazol-1-yl)methyl)benzamide], for which the “PXR inverse agonism: decrease of basal activity in %” value on PXR [4] is “(-72.03±0.3) %”; on PXR [4] (listed as 9 (MI-883)) it was “–72.03 ± 0.3%”.
With `CNC(=O)c1cc(Cn2cc(-c3c(-c4ccc(Cl)cc4)nc4c(F)cc(F)cn34)nn2)ccc1Cl` [Compound 12, 2-Chloro-5-((4-(2-(4-chlorophenyl)-6,8-difluoroimidazo[1,2-a]pyridin-3-yl)-1H-1,2,3-triazol-1-yl)methyl)-N-methylbenzamide], the “CAR TR-FRET (EC50, μM)” value on human CAR LBD [1] was “nb”. The molecule also gave a concentration for half-maximal inhibition (IC50) against PXR [2] of 8.04 ± 2.3 µM.
As to `COc1ccc(OC)c(-n2nnc(S(=O)(=O)c3ccc(NC(=O)CCOCCOCCOCCOCCn4cc(CNc5cccc6c5C(=O)N(C5CCC(=O)NC5=O)C6=O)nn4)cc3)c2C)c1` (centres unmarked) [Compound 37, N-(4-((1-(2,5-dimethoxyphenyl)-5-methyl-1H-1,2,3-triazol-4-yl)sulfonyl)phenyl)-1-(4-(((2-(2,6-dioxopiperidin-3-yl)-1,3-dioxoisoindolin-4-yl)amino)methyl)-1H-1,2,3-triazol-1-yl)-3,6,9,12-tetraoxapentadecan-15-amide], on PXR [5], the “PXR degradation (Western blot)” value is “mild effect on PXR degradation”.
As to `CC(C)[N+](C)(CCOC(=O)C1c2ccccc2Oc2ccccc21)C(C)C` [Propantheline, reference compound], the half-life in data set [6] was determined as 28 ± 1 min.
As for “N-(4-((1-(2,5-Dimethoxyphenyl)-5-methyl-1H-1,2,3-triazol-4-yl)sulfonyl)phenyl)-3-(2-(2-(4-(((2-(2,6-dioxopiperidin-3-yl)-1,3-dioxoisoindolin-4-yl)amino)methyl)-1H-1,2,3-triazol-1-yl)ethoxy)ethoxy)propenamide [Compound 35]”, the “PXR degradation (Western blot)” value at PXR [5] is “no effect on PXR degradation”.
